Measurements: patent US9540391B2, “Isomannide derivatives as inhibitors of soluble epoxide hydrolase” (SANOFI, priority 2013, dated 2017)
Structures can show the parent of a compound that is named as a salt.

molecular target: T1, recombinant sEH (Homo sapiens, UniProt P34913); assay: biochemical screening assay for inhibition of soluble epoxide hydrolase (fluorometric, Phome substrate)
T1 construct: made in house; host or cells: Sf9 insect cells
T1 sequence (P34913 1-555): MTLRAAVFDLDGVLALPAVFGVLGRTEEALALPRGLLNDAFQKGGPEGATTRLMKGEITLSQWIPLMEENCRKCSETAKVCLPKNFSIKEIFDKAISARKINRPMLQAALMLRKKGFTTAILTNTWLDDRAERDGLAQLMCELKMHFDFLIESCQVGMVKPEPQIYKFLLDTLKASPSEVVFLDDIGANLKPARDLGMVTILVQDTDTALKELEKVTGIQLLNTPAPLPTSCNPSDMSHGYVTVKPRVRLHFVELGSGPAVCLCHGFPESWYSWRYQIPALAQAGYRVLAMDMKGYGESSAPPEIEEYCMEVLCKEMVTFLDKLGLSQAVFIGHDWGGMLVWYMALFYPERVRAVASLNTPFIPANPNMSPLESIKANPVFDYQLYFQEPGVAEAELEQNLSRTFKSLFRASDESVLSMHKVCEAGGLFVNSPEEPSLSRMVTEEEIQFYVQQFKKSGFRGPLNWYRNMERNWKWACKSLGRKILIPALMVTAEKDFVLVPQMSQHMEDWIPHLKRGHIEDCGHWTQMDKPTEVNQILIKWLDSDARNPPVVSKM
Outline: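 Human sEH from Sf9 cells (2 nM final) was pre-incubated 15 min at 30 °C with compound (0.0001–10 μM), then reacted 60 min at 30 °C with 5 μM Phome in 25 mM Hepes/0.01% albumin. Fluorescence of released 6-methoxy-2-naphthaldehyde was read before substrate and at end; IC50 from % inhibition.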

Structure (SMILES) | IC50
O=C(Nc1cccc(F)c1)N[C@H]1CO[C@H]2[C@@H]1OC[C@@H]2/C=C\c1ccccc1 [Example 329, 1-(3-Fluoro-phenyl)-3-[(3S,3aR,6S,6aR)-6-((Z)-styryl)-hexahydro-furo[3,2-b]furan-3-yl]-urea] | 95 nM
O=C(NCCc1cccs1)N[C@H]1CO[C@H]2[C@@H]1OC[C@@H]2/C=C\c1ccccc1 [Example 330, 1-[(3S,3aR,6S,6aR)-6-((Z)-Styryl)-hexahydro-furo[3,2-b]furan-3-yl]-3-(2-thiophen-2-yl-ethyl)-urea] | 69 nM
O=C(NCCc1ccccc1)N[C@H]1CO[C@H]2[C@@H]1OC[C@@H]2/C=C\c1ccccc1 [Example 331, 1-Phenethyl-3-[(3S,3aR,6S,6aR)-6-((Z)-styryl)-hexahydro-furo[3,2-b]furan-3-yl]-urea] | 18 nM
O=C(Nc1ccc(OC(F)(F)F)cc1)N[C@H]1CO[C@H]2[C@@H]1OC[C@@H]2/C=C\c1ccccc1 [Example 332, 1-[(3S,3aR,6S,6aR)-6-((Z)-Styryl)-hexahydro-furo[3,2-b]furan-3-yl]-3-(4-trifluoromethoxy-phenyl)-urea] | 11 nM
O=C(Nc1cccc(C(F)(F)F)c1)N[C@H]1CO[C@H]2[C@@H]1OC[C@@H]2/C=C\c1ccccc1 [Example 333, 1-[(3S,3aR,6S,6aR)-6-((Z)-Styryl)-hexahydro-furo[3,2-b]furan-3-yl]-3-(3-trifluoromethyl-phenyl)-urea] | 44 nM
O=C(NC1CCCCC1)N[C@H]1CO[C@H]2[C@@H]1OC[C@@H]2/C=C\c1ccccn1 [Example 334, 1-Cyclohexyl-3-[(3S,3aR,6S,6aR)-6-((Z)-2-pyridin-2-yl-vinyl)-hexahydro-furo[3,2-b]furan-3-yl]-urea; trifluoroacetate] | 159 nM
COc1cc(NC(=O)NC2COC3C(C=Cc4ccsc4)COC23)cc(OC)c1 [Example 335, 1-(3,5-Dimethoxy-phenyl)-3-[(3S,3aR,-6S,6aR)-6-((Z)-2-thiophen-3-yl-vinyl)-hexahydro-furo[3,2-b]furan-3-yl]-urea] | 665 nM
Cc1cc(C)cc(NC(=O)NC2COC3C(C=Cc4ccsc4)COC23)c1 [Example 336, 1-(3,5-Dimethyl-phenyl)-3-[(3S,3aR,6S,-6aR)-6-((Z)-2-thiophen-3-yl-vinyl)-hexahydro-furo[3,2-b]furan-3-yl]-urea] | 47 nM
O=C(Nc1ccccc1)N[C@H]1CO[C@H]2[C@@H]1OC[C@@H]2/C=C\c1ccsc1 [Example 337, 1-Phenyl-3-[(3S,3aR,6S,6aR)-6-((Z)-2-thiophen-3-yl-vinyl)-hexahydro-furo[3,2-b]furan-3-yl]-urea] | 423 nM
O=C(NCc1ccc(F)cc1)N[C@H]1CO[C@H]2[C@@H]1OC[C@@H]2/C=C\c1ccsc1 [Example 338, 1-(4-Fluoro-benzyl)-3-[(3S,3aR,6S,6aR)-6-((Z)-2-thiophen-3-yl-vinyl)-hexahydro-furo[3,2-b]furan-3-yl]-urea] | 392 nM
Cc1cccc(CNC(=O)N[C@H]2CO[C@H]3[C@@H]2OC[C@@H]3/C=C\c2ccsc2)c1 [Example 339, 1-(3-Methyl-benzyl)-3-[(3S,3aR,6S,6aR)-6-((Z)-2-thiophen-3-yl-vinyl)-hexahydro-furo[3,2-b]furan-3-yl]-urea] | 418 nM
O=C(Nc1ccc(F)cc1)N[C@H]1CO[C@H]2[C@@H]1OC[C@@H]2/C=C\c1ccsc1 [Example 340, 1-(4-Fluoro-phenyl)-3-[(3S,3aR,6S,6aR)-6-((Z)-2-thiophen-3-yl-vinyl)-hexahydro-furo[3,2-b]furan-3-yl]-urea] | 89 nM
O=C(Nc1ccc2c(c1)CCC2)N[C@H]1CO[C@H]2[C@@H]1OC[C@@H]2/C=C\c1ccsc1 [Example 341, 1-Indan-5-yl-3-[(3S,3aR,6S,6aR)-6-((Z)-2-thiophen-3-yl-vinyl)-hexa-hydro-furo[3,2-b]furan-3-yl]-urea] | 90 nM
O=C(Nc1ccc(C(F)(F)F)cc1)NC1COC2C(C=Cc3ccsc3)COC12 [Example 342, 1-[(3S,3aR,6S,6aR)-6-((Z)-2-Thio-phen-3-yl-vinyl)-hexahydro-furo[3,2-b]furan-3-yl]-3-(4-trifluoromethyl-phenyl)-urea] | 17 nM
COC(=O)c1cccc(NC(=O)N[C@H]2CO[C@H]3[C@@H]2OC[C@@H]3/C=C\c2ccsc2)c1 [Example 343, 3-{3-[(3S,3aR,6S,6aR)-6-((Z)-2-Thiophen-3-yl-vinyl)-hexahydro-furo[3,2-b]furan-3-yl]-ureido}-benzoic acid methyl ester] | 102 nM
O=C(NCCc1ccccc1)N[C@H]1CO[C@H]2[C@@H]1OC[C@@H]2/C=C\c1ccsc1 [Example 344, 1-Phenethyl-3-[(3S,3aR,6S,6aR)-6-((Z)-2-thiophen-3-yl-vinyl)-hexa-hydro-furo[3,2-b]furan-3-yl]-urea] | 42 nM

Structure (SMILES) | IC50
O=C(Nc1ccc(OC(F)(F)F)cc1)N[C@H]1CO[C@H]2[C@@H]1OC[C@@H]2/C=C\c1ccsc1 [Example 345, 1-[(3S,3aR,6S,6aR)-6-((Z)-2-Thiophen-3-yl-vinyl)-hexahydro-furo[3,2-b]furan-3-yl]-3-(4-trifluoromethoxy-phenyl)-urea] | 11 nM
O=C(Nc1cccc(C(F)(F)F)c1)N[C@H]1CO[C@H]2[C@@H]1OC[C@@H]2/C=C\c1ccsc1 [Example 346, 1-[(3S,3aR,6S,6aR)-6-((Z)-2-Thiophen-3-yl-vinyl)-hexahydro-furo[3,2-b]furan-3-yl]-3-(3-trifluoromethyl-phenyl)-urea] | 62 nM
O=C(NC1CCCCC1)N[C@H]1CO[C@@H]2[C@@H](CCc3ccc4c(c3)OCO4)CO[C@@H]21 [Example 347, 1-[(3S,3aR,6S,6aR)-6-(2-benzo[1,3]dioxol-5-yl-ethyl)-hexahydro-furo[3,2-b]furan-3-yl]-3-cyclohexyl-urea] | 128 nM
O=C(Nc1ccc2c(c1)OCO2)NC1COC2C(CCc3ccccc3)COC12 [Example 348, 1-Benzo[1,3]dioxol-5-yl-3-((3S,3aR,6S,-6aR)-6-phenethyl-hexahydro-furo[3,2-b]furan-3-yl)-urea] | 229 nM
O=C(NC1CCCCC1)N[C@H]1CO[C@@H]2[C@@H](CCc3ccccc3)CO[C@@H]21 [Example 349, 1-Cyclohexyl-3-((3S,3aR,6S,6aR)-6-phenethyl-hexahydro-furo[3,2-b]furan-3-yl)-urea] | 37 nM
O=C(NC1CCCCC1)N[C@H]1CO[C@@H]2[C@@H](CCc3ccccn3)CO[C@@H]21 [Example 350, 1-Cyclohexyl-3-[(3S,3aR,6S,6aR)-6-(2-pyridin-2-yl-ethyl)-hexahydro-furo[3,2-b]furan-3-yl]-urea; trifluoroacetate] | 22 nM
CCCCOc1ccc(NC(=O)NC2COC3C(CCc4ccccc4)COC23)cc1 [Example 351, 1-(4-Butoxy-phenyl)-3-[(3S,3aR,6R)-6-((S)-phenethyl)-hexahydro-furo[3,2-b]furan-3-yl]-urea] | 161 nM
COc1cc(NC(=O)N[C@H]2CO[C@H]3[C@H](CCc4ccccc4)CO[C@@H]32)cc(OC)c1 [Example 352, 1-(3,5-Dimethoxy-phenyl)-3-[(3S,3aR,6R)-6-((S)-phenethyl)-hexa-hydro-furo[3,2-b]furan-3-yl]-urea] | 149 nM
Cc1cc(C)cc(NC(=O)N[C@H]2CO[C@H]3[C@H](CCc4ccccc4)CO[C@@H]32)c1 [Example 353, 1-(3,5-Dimethyl-phenyl)-3-[(3S,3aR,6R)-6-((S)-phenethyl)-hexa-hydro-furo[3,2-b]furan-3-yl]-urea] | 17 nM
O=C(Nc1ccccc1)NC1COC2C(CCc3ccccc3)COC12 [Example 354, 1-[(3S,3aR,6R)-6-((S)-Phenethyl)-hexa-hydro-furo[3,2-b]furan-3-yl]-3-phenyl-urea] | 127 nM
O=C(Nc1ccc(OCc2ccccc2)cc1)NC1COC2C(CCc3ccccc3)COC12 [Example 355, 1-(4-Benzyloxy-phenyl)-3-[(3S,3aR,6R)-6-((S)-phenethyl)-hexahydro-furo[3,2-b]furan-3-yl]-urea] | 80 nM
O=C(NCc1ccc(F)cc1)NC1COC2C(CCc3ccccc3)COC12 [Example 356, 1-(4-Fluoro-benzyl)-3-[(3S,3aR,6R)-6-((S)-phenethyl)-hexahydro-furo[3,2-b]furan-3-yl]-urea] | 140 nM
Cc1cccc(NC(=O)NC2COC3C(CCc4ccccc4)COC23)c1 [Example 357, 1-[(3S,3aR,6R)-6-((S)-Phenethyl)-hexahydro-furo[3,2-b]furan-3-yl]-3-m-tolyl-urea] | 84 nM
O=C(Nc1ccc(Cl)c(Cl)c1)NC1COC2C(CCc3ccccc3)COC12 [Example 358, 1-(3,4-Dichloro-phenyl)-3-[(3S,3aR,6R)-6-((S)-phenethyl)-hexahydro-furo[3,2-b]furan-3-yl]-urea] | 22 nM
Cc1cccc(CNC(=O)NC2COC3C(CCc4ccccc4)COC23)c1 [Example 359, 1-(3-Methyl-benzyl)-3-[(3S,3aR,6R)-6-((S)-phenethyl)-hexahydro-furo[3,2-b]furan-3-yl]-urea] | 111 nM
O=C(Nc1ccc(F)cc1)NC1COC2C(CCc3ccccc3)COC12 [Example 360, 1-(4-Fluoro-phenyl)-3-[(3S,3aR,6R)-6-((S)-phenethyl)-hexahydro-furo[3,2-b]furan-3-yl]-urea] | 81 nM
